Reference: publication PMC7323874, “Vancomycin Resistance Is Overcome by Conjugation of Polycationic Peptides” (Angewandte Chemie (International Ed. in English), 2020)
Values after ≈ are worked out from the molar mass of the structure shown. Where two headings read alike, the source gives them in different places.

Assays:
[1] = system: Staphylococcus aureus USA300 LAC; assay: microbe, parasite or virus in culture; assay type: cell-based; conditions: Staphylococcus aureus, MRSA / USA300, 24 h
Method: (§1) Antimicrobial testing – Microdilution
Antimicrobial testing was performed according to CLSI and EUCAST guidelines in microdilution.8-10 Therefore, all tested substances as well as controls were dissolved in water in different concentrations and serially diluted in MHB II (cation adjusted) on the 96-well plate. A logarithmic growing, overnight culture of the respective bacterial strain was used and adjusted to a McFarland corresponding to 1 × 10^8 cfu/ml. Afterwards the bacterial suspension was diluted to 1 ×10^6 cfu/ml and loaded on the 96-well polypropylene plates, resulting in a final bacterial concentration of 5 × 10^5 cfu/ml. After an incubation at 35 ± 1 °C for 18-20 hours (re-controlled after 24 hours) the MIC was determined as the lowest concentration without visible growth as described previously.11 For direct comparison of the tested substances, all results were calculated in mg/ml and mol/ml afterwards. […]
Resistance development study
(§2) Resistance development in S. aureus was determined by passaging bacteria in increasing amounts of vancomycin, FU002 or, as control, fusidic acid. In principle, tubes with twofold dilutions of the compounds in 1 ml Muller Hinton broth were inoculated 1:100 with bacterial suspension. The tubes were then incubated for 24 h at 37 °C under shaking. After each passage, the tube with the highest compound concentration showing bacterial growth was used to inoculate the tubes of the next passage (1:100). The tube with the lowest compound concentration showing no growth was defined as the passage MIC. Passaging was stopped after 8 passages.
For the validation of possible side effects provoked by the conjugates, the cytotoxic effect of the lead candidate FU002 on human cells was assessed in a colorimetric viability assay. Different human cell types were used including kidney and liver cell lines as well as freshly isolated peripheral blood cells. Cells were seeded into 96-well microtiter plates at 2 x 10^4 cells/well and cultured overnight (18-24 h) in a […]

[2] = system: Staphylococcus aureus NCTC 10442; assay: Blocking experiments with Nα,Nε-diacetyl-Lys-D-Ala-D-Ala in microdilution; assay type: cell-based; conditions: at least 100-fold excess of Nα,Nε-Diacetyl-Lys-D-Ala-D-Ala, pre-incubation minimum 1 hour at room temperature
Method: as §1
Antimicrobial testing was performed according to CLSI and EUCAST guidelines in microdilution.8-10 Therefore, all tested substances as well as controls were dissolved in water in different concentrations and serially diluted in MHB II (cation adjusted) on the 96-well plate. A logarithmic growing, overnight culture of the respective bacterial strain was used and adjusted to a McFarland corresponding to 1 × 10^8 cfu/ml. Afterwards the bacterial suspension was diluted to 1 ×10^6 cfu/ml and loaded on the 96-well polypropylene plates, resulting in a final bacterial concentration of 5 × 10^5 cfu/ml. After an incubation at 35 ± 1 °C for 18-20 hours (re-controlled after 24 hours) the MIC was determined as the lowest concentration without visible growth as described previously.11 For direct comparison of the tested substances, all results were calculated in mg/ml and mol/ml afterwards.
as §2, with “For blocking experiments with NΑ,NΕ-DIACETYL-LYS-D-ALA-D-ALA the tested substances were incubated directly on the dilution plate with at least 100-fold excess of Nα,Nε-Diacetyl-Lys-D-Ala-D-Ala for a minimum of 1 hour at room temperature. Afterwards, the procedure was performed as described above. As further control substance, the glycopeptide antibiotic teicoplanin was evaluated. […] Resistance” for “Resistance”, “Passaging was stopped after 8 passages.” left out
For the validation of possible side effects provoked by the conjugates, the cytotoxic effect of the lead candidate FU002 on human cells was assessed in a colorimetric viability assay. […]

| Molecule | MIC ([1]; read-out: MIC after 8 passages) | MIC ([1]; read-out: initial MIC) | effect of D-Ala-D-Ala binding motif on antibiotic activity [2] |
| --- | --- | --- | --- |
| CC(=O)O[C@H]1C[C@@]2(C)[C@@H](C[C@@H](O)[C@H]3[C@@]4(C)CC[C@@H](O)[C@@H](C)[C@@H]4CC[C@@]32C)/C1=C(\CCC=C(C)C)C(=O)O [fusidic acid] | 64 µg/mL (≈ 124 µM) | 0.125 µg/mL (≈ 0.242 µM) | – |
| teicoplanin | – | – | suppresses the antibiotic activity |
